Test results as given in PMC5974779, “Prediction of Drug-Induced Hepatotoxicity Using Long-Term Stable Primary Hepatic 3D Spheroid Cultures in Chemically Defined Conditions” (Toxicological Sciences, 2018).
Like-named read-outs stand apart in the source and are kept apart here.

Legend:
[1] = cited from earlier work; for Extent of hepatic metabolism: ref DrugBank and Prescribers' Digital Reference database
rats = test system: rats; set-up: method as in McGill et al., 2012b; conditions: in vivo; ref McGill et al., 2012b; cited from earlier work
[2] = test system: PHH spheroids (hanging-drop); conditions: PHH hanging-drop spheroids, 100x Cmax; ref Proctor 2017; cited from earlier work
PHH 2D sandwich cultures = conditions: cited from earlier work; for 2Dsw (Xu 2008) 100x: PHH 2D sandwich cultures, 100x Cmax, ref Xu 2008
[3] = test system: C57BL/6 mouse primary hepatocyte 3D spheroids; assay: Animal hepatocyte spheroid hepatotoxicity (ATP viability, 14 days), C57BL/6 (BL6) mouse; assay type: cell-based; conditions: for hepatotoxicity evaluation in spheroids: C57BL/6 mouse hepatocyte spheroids, 1×, 5×, 20× human cmax, 14 days
clinical DILI in man = conditions: cited from earlier work; for FDA (Severity): FDA drug labeling DILI concern; for Guo et al. (2005): ref Guo et al. (2005); for Xu et al. (2008): ref Xu et al. (2008); for Clinical DILI classification (Figure 5): structural analogue pairs, 2008 and others
[4] = test system: rhesus monkey primary hepatocyte 3D spheroids; assay: Animal hepatocyte spheroid hepatotoxicity (ATP viability, 14 days), rhesus monkey; assay type: cell-based; conditions: for hepatotoxicity evaluation in spheroids: rhesus monkey hepatocyte spheroids, 1×, 5×, 20× human cmax, 14 days
[5] = Animal hepatocyte spheroid hepatotoxicity (ATP viability, 14 days), minipig; assay type: cell-based, Gottingen minipig; conditions: Gottingen, primary minipig hepatocyte 3D spheroids; minipig spheroids, no indication of hepatotoxicity
[6] = test system: CD1 mouse primary hepatocyte 3D spheroids; assay: Animal hepatocyte spheroid hepatotoxicity (ATP viability, 14 days), CD1 mouse; assay type: cell-based; conditions: for hepatotoxicity evaluation in spheroids: CD1 mouse hepatocyte spheroids, 1×, 5×, 20× human cmax, 14 days
[7] = test system: primary human hepatocytes (PHH) 3D spheroids
[8] = therapeutic total cmax; ref PMID; cited from earlier work
in vitro = conditions: human
[9] = test system: Wistar rat primary hepatocyte 3D spheroids; assay: Animal hepatocyte spheroid hepatotoxicity (ATP viability, 14 days), Wistar rat; assay type: cell-based; conditions: for hepatotoxicity evaluation in spheroids: Wistar rat hepatocyte spheroids, 1×, 5×, 20× human cmax, 14 days
[10] = test system: rat, mouse, dog, and cynomolgus monkey; set-up: method as in Manning and Swartz, 1995; conditions: ref Manning and Swartz, 1995; cited from earlier work
patients = conditions: phase I clinical trial, ref McKenzie et al., 1995, cited from earlier work
[11] = test system: Gottingen minipig primary hepatocyte 3D spheroids; assay: Animal hepatocyte spheroid hepatotoxicity (ATP viability, 14 days), minipig; assay type: cell-based; conditions: minipig hepatocyte spheroids, 1×, 5×, 20× human cmax, 14 days
[12] = human liver, ref Yoon et al., 2016
[13] = DILI classification score, ref Suzuki et al. (2010)
[14] = FDA drug labeling DILI score, ref Chen et al., 2011
[15] = clinical DILI classification in man (POS/NEG)
[16] = clinical DILI classification used in this study, Supplementary Table 2, ref Chen et al., 2011, Guo et al., 2005, O'Brien et al., 2006, Sakatis et al., 2012, Suzuki et al., 2010, Xu et al., 2008
[17] = clinical DILI classification, Supplementary Table 1, ref Chen et al., 2011, Guo et al., 2005, O'Brien et al., 2006, Sakatis et al., 2012, Suzuki et al., 2010, Xu et al., 2008
[18] = reported pattern of liver damage, Supplementary Table 2, ref literature
[19] = clinical hepatotoxicity classification, ref Sakatis et al. (2012)
[20] = ref Chen et al., 2011, Xu et al.

| SMILES | Extent of hepatic metabolism [1] | Hanging-drop spheroids (Proctor 2017) 100x [2] | 2Dsw (Xu 2008) 100x (PHH 2D sandwich cultures) | Chemically defined spheroids (this study) 20x [7] | Cmax [8] | Suzuki et al. (2010) (clinical DILI in man; [13]) | FDA (Severity) (clinical DILI in man; ref Chen et al., 2011) | FDA (0-8) (clinical DILI in man; [14]) | DILI in vivo (clinical DILI in man; [15]) | Classified as (clinical DILI in man; [16]) | DILI in vivo (clinical DILI in man; [17]) | Type of DILI (clinical DILI in man; [18]) | hepatotoxicity evaluation in spheroids [3] | Guo et al. (2005) (clinical DILI in man; DILI classification score) | Xu et al. (2008) (clinical DILI in man; clinical DILI classification) | hepatotoxicity evaluation in spheroids [4] | hepatotoxicity evaluation in spheroids [11] | hepatotoxicity evaluation in spheroids [6] | hepatotoxicity evaluation in spheroids [9] | Sakatis et al. (2012) (clinical DILI in man; [19]) | also measured |
| --- | --- | --- | --- | --- | --- | --- | --- | --- | --- | --- | --- | --- | --- | --- | --- | --- | --- | --- | --- | --- | --- |
| CC(=O)Nc1ccc(O)cc1 [Acetaminophen] | Extensive | Positive | Positive | – | – | – | – | – | – | – | – | – | – | – | – | – | – | – | – | – | fraction inactivated by sulfation or glucuronidation [1, 12]: around 90%; fraction metabolically activated by CYP2E1 and CYP3A4 to NAPQI [1, 12]: 5%–10%; acetaminophen-induced hepatotoxicity in rats (rats): resistant to acetaminophen-induced hepatotoxicity |
| Cc1ccc(-c2cc(C(F)(F)F)nn2-c2ccc(S(N)(=O)=O)cc2)cc1 [Celecoxib] | Extensive | – | – | Positive | 2.55 µM | – | – | – | – | – | – | – | – | – | – | – | – | – | – | – | viability ([3]; C57BL/6 mouse spheroids, 20× cmax): < 2 % of respective controls; Classified as (clinical DILI in man; in vivo): POS; Clinical DILI class (panel heading of Figure 4) (clinical DILI in man; in vivo): High DILI concern; DILI in vivo (clinical DILI in man; in vivo): POS; FDA (0-8) (clinical DILI in man; in vivo): 3; Suzuki et al. (2010) (clinical DILI in man; in vivo): 1; Type of DILI (clinical DILI in man; in vivo): Hepatocellular injury or Cholestatic injury; viability ([4]; monkey spheroids, 20× cmax): < 2 % of respective controls; viability at 14 days [5]: > 100%; viability ([6]; CD1 mouse spheroids, 20× cmax): < 2 % of respective controls; viability at 14 days, 20 × cmax (in vitro): < 2%; viability ([9]; rat spheroids, 20× cmax): < 2 % of respective controls |
| O=c1[nH]c(=O)n([C@@H]2O[C@H](CO)[C@@H](O)[C@@H]2F)cc1I [Fialuridine] | Minimal | – | – | Positive | 0.64 µM | 2 | most DILI concern | Discontinued | POS | POS | POS | Hepatocellular injury, Cholestatic injury or Mixed hepatitis | – | – | – | – | – | – | – | – | O'Brien et al. (2003) (clinical DILI in man; clinical hepatotoxicity classification, ref O'Brien et al. (2003)): Severely; indications of hepatotoxicity in preclinical species [10]: did not show indications of hepatotoxicity; volunteers with lactic acidosis and acute liver failure (patients; few weeks after commencing therapy): 7 out of 15; volunteers who died (patients; of the 7 with acute liver failure): 5; hepatotoxicity evaluation in CD-spheroids [7]: successfully detect fialuridine hepatotoxicity at clinically relevant concentrations |
| CC(C)C(=O)Nc1ccc([N+](=O)[O-])c(C(F)(F)F)c1 [Flutamide] | Extensive | Positive | Negative | Positive | 5.43 µM | 2 | most DILI concern | 8 | POS | POS | POS | Hepatocellular injury, Cholestatic injury or Mixed hepatitis | flagged as hepatotoxic | 3 | Positive | flagged as hepatotoxic | flagged as hepatotoxic | flagged as hepatotoxic | flagged as hepatotoxic | – | O'Brien et al. (2003) (clinical DILI in man; in vivo): Severely; Sakatis et al. (2012) (clinical DILI in man; in vivo): Hepatotoxic; hepatotoxicity detection in 2D sandwich cultures of PHH (PHH 2D sandwich cultures; 100× cmax, 24 h, high content imaging, ref Xu et al., 2008): liver toxicity was not recognized |
| CCc1nn(CCCN2CCN(c3cccc(Cl)c3)CC2)c(=O)n1CCOc1ccccc1 [Nefazodone] | Extensive | Positive | Positive | Positive | 3.95 µM | 3 | – | 8 | POS | POS | POS | Hepatocellular injury | flagged as hepatotoxic | 3 | Positive | flagged as hepatotoxic | flagged as hepatotoxic | flagged as hepatotoxic | flagged as hepatotoxic | Hepatotoxic | Clinical DILI classification (Figure 5) (clinical DILI in man; [20]): DILI positive; hepatotoxicity evaluation in CD-spheroids ([7]; human, 14 days): severe toxicity at 5× and 20× of the therapeutic exposure levels |
| C1CCC(C(CC2CCCCN2)C2CCCCC2)CC1 (stereo not shown) [Perhexiline] | Extensive | Positive | Positive | Positive | – | 3 | – | Withdrawn | POS | POS | POS | Hepatocellular injury | flagged as hepatotoxic | – | Positive | flagged as hepatotoxic | flagged as hepatotoxic | flagged as hepatotoxic | flagged as hepatotoxic | Hepatotoxic | – |
| Cc1c(C)c2c(c(C)c1O)CCC(C)(COc1ccc(CC3SC(=O)NC3=O)cc1)O2 (stereo not shown) [Troglitazone] | Extensive | Positive | Positive | Positive | 6.08 µM | 3 | most DILI concern | Withdrawn | POS | POS | POS | Hepatocellular injury or Cholestatic injury | flagged as hepatotoxic | 3 | Positive | flagged as hepatotoxic | flagged as hepatotoxic | flagged as hepatotoxic | flagged as hepatotoxic | Hepatotoxic | Clinical DILI classification (Figure 5) (clinical DILI in man; [20]): DILI positive; hepatotoxicity evaluation in CD-spheroids [7]: clearly detected |
